Molecules are shown by their SMILES.

Data on one molecule can be found in paper PMC3188543, “The Anti-interferon Activity of Conserved Viral dUTPase ORF54 is Essential for an Effective MHV-68 Infection” (PLoS Pathogens, 2011).

The assay concerns the target T1, murine cellular dUTPase (Mus musculus, UniProt Q9CQ43).
T1 construct: gene Dut; FLAG-tagged, expressed in 293T, anti-FLAG immunopurified, 3xFLAG peptide eluted; tag kept; homotrimer
T1 sequence (Q9CQ43 1-162): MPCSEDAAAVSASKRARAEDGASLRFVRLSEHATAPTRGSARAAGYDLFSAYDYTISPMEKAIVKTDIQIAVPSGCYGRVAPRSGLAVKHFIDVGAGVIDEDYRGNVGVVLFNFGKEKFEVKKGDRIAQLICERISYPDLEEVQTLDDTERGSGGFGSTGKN
In words: dUTP hydrolysis, read out by PCR with remaining dUTP in place of dTTP (gel). The class given is biochemical. The settings on record: pH 7.5, 37 C, MgCl2, DTT, BSA; 5 mM dUTP stock; 0-25 h.

Take `O=c1ccn([C@H]2C[C@H](O)[C@@H](COP(=O)(O)OP(=O)(O)OP(=O)(O)O)O2)c(=O)[nH]1` [dUTP]: the “dUTP hydrolysis, read out by PCR with remaining dUTP in place of dTTP (gel)” value was “used to determine the presence of functional dUTP after incubation”.
